Publication PMC9921329, “Semisynthetic Sesquiterpene Lactones Generated by the Sensibility of Glaucolide B to Lewis and Brønsted–Lowry Acids and Bases: Cytotoxicity and Anti-Inflammatory Activities” (Molecules, 2023)

What was measured:
[1] = test system: NCI-H460 (human lung carcinoma cell line); assay: MTT cell viability, human lung carcinoma cells; type: cell-based; conditions: 24 h incubation, mean ± SD (n = 3), test concentration not given
Protocol: (§1) To evaluate the potential antitumoral activity of the compounds, the MTT [3-(4,5-dimethyl-2-thiazolyl)-2,5-diphenyl-2H-tetrazolium bromide] method was used to determine the cell viability of SK-MEL-28 (human melanoma cell line), NCI-H460 (human lung carcinoma cell line), SF295 (human glioblastoma cell line), and HUVEC (human umbilical vein endothelial cells) line. Cell viability analysis of murine macrophage J774A.1 was conducted using a resazurin-based cytotoxicity assay (Alamar blue®). All cell lines were acquired from the BCRJ (Rio de Janeiro Cell Bank, Federal University of Rio de Janeiro, Brazil). The cell lines were cultivated in RPMI-1640 or DMEM medium, supplemented with 1.5 g/L of sodium bicarbonate, 10 mM of HEPES, pH 7.4, 100 U/mL of penicillin G, 100 μg/mL of streptomycin, and 10% fetal calf serum at 37 °C in a humidified atmosphere consisting of 95% air and 5% CO2 cultures, and greater than 95% of viable cells in trypan blue exclusion tests were used for the experiments. Therefore, cells were seeded (1 × 10^4/well) in 96-well plates and incubated with increasing concentrations of the compounds for 24 h. After incubation, the former culture medium was replaced with a fresh culture medium with 5 mg/mL of MTT and with 0.1 mg/mL of resazurin for 2 h at 37 °C. MTT formazan crystals were dissolved in DMSO, and the absorbance of each well was measured at 540 nm, using a micro-well system reader. For the control group of each cell line, cells were incubated without the compounds and considered to have 100% cell viability. MTT formazan crystals were dissolved in DMSO, and absorbance was measured at 540 nm using a microplate reader (ELX800, Biotek, Winooski, VT, USA). The half-maximal cytotoxic concentration (CC50) values were calculated from a Hill concentration–response curve. Results were expressed as the mean ± SD of three experiments. The selectivity index (SI) was calculated via the ratio between the CC50 of non-tumoral cells and the tumoral cell lines. […] For the resazurin assay, fluorescence was measured at 1 h intervals using a plate multi-reader (Infinite Multireader m200 Tecan) at 530–590 nm. Nonlinear regression of each fraction versus percentage cell viability was performed to obtain a 10% toxicity concentration (a concentration causing 90% cell viability) using GraphPad Prism 8.0 software (GraphPad Software, San Diego, CA, USA).

[2] = test system: SF295 (human glioblastoma cell line); assay: MTT cell viability, human glioblastoma cells; type: cell-based; conditions: 24 h incubation, mean ± SD (n = 3), test concentration not given
Protocol: as §1

[3] = test system: SK-MEL-28 (human melanoma cell line); assay: MTT cell viability / cytotoxicity, human melanoma cells; type: cell-based; conditions: for Viability (%) SK-MEL-28 / CC50: MTT; for Viability (%) SK-MEL-28: 24 h incubation, mean ± SD (n = 3), test concentration not given; for CC50: Homo sapiens, SK-MEL-28, 24 h, half-maximal cytotoxic concentration; for SI (selectivity index) SK-MEL-28: ratio of CC50 of non-tumoral HUVEC cells to CC50 of SK-MEL-28
Protocol: as §1

[4] = MTT cytotoxicity, non-tumoral endothelial cells; type: cell-based, human; conditions: human, HUVEC cells (non-tumoral), pH 7.4
Protocol: as §1

[5] = test system: LPS-stimulated M1 macrophages J774A.1 (NOx); assay: Total nitrite nitrate (NOx) release from LPS-stimulated macrophages (Griess); type: cell-based, murine
Protocol: (§2) The in vitro anti-inflammatory activity was performed in murine macrophage J774A.1 and analyzed after modifications to the protocol previously described by […] and coworkers. The evaluation consisted of measuring the production of nitrite through an indicator of NO synthesis in supernatants from LPS-activated macrophages. A number of 1 × 10^5 cells/well were seeded in 96-well plates for 24 h, after which time the culture medium was changed, and the CC10 concentration (Figure S70, found in the Supplementary Materials) of each compound was added to the medium containing DMEM supplemented with 10% FBS. After 15 min, macrophages were stimulated with 10 μg/mL of LPS and incubated for 24 h to obtain a proinflammatory M1-phenotype. Subsequently, supernatants were collected and total nitrite nitrate (NOx) was measured by adding 100 μL of Griess' reagent (1% sulfanilamide and 0.1% N-(1-naphthyl) ethylenediamine in 0.5% phosphoric acid). Absorbance was determined with a microplate reader (ELX800, BioTek, Winooski, VT, USA) at 540 nm. In addition, the proinflammatory cytokine IL-6 was determined using an enzyme-linked immunosorbent assay (ELISA) (BD Bioscience, San Jose, CA, USA) according to the manufacturer's instructions.

[6] = test system: LPS-stimulated M1 macrophages J774A.1 (IL-6); assay: Interleukin-6 release from LPS-stimulated macrophages (ELISA); type: cell-based, murine
Protocol: as §2

[7] = test system: murine macrophage J774A.1; assay: Resazurin-based cytotoxicity assay (Alamar blue) in macrophages; type: cell-based; conditions: J774A.1, Figure S70
Protocol: To evaluate the potential antitumoral activity of the compounds, the MTT [3-(4,5-dimethyl-2-thiazolyl)-2,5-diphenyl-2H-tetrazolium bromide] method was used to determine the cell viability of SK-MEL-28 (human melanoma cell line), NCI-H460 (human lung carcinoma cell line), SF295 (human glioblastoma cell line), and HUVEC (human umbilical vein endothelial cells) line. Cell viability analysis of murine macrophage J774A.1 was conducted using a resazurin-based cytotoxicity assay (Alamar blue®). All cell lines were acquired from the BCRJ (Rio de Janeiro Cell Bank, Federal University of Rio de Janeiro, Brazil). […] MTT formazan crystals were dissolved in DMSO, and the absorbance of each well was measured at 540 nm, using a micro-well system reader. […] MTT formazan crystals were dissolved in DMSO, and absorbance was measured at 540 nm using a microplate reader (ELX800, Biotek, Winooski, VT, USA). The half-maximal cytotoxic concentration (CC50) values were calculated from a Hill concentration–response curve. Results were expressed as the mean ± SD of three experiments. The selectivity index (SI) was calculated via the ratio between the CC50 of non-tumoral cells and the tumoral cell lines. […] For the resazurin assay, fluorescence was measured at 1 h intervals using a plate multi-reader (Infinite Multireader m200 Tecan) at 530–590 nm. […]

[8] = compound at CC10, pre-treatment 15 min, LPS 10 μg/mL, 24 h

SMILES | Viability (%) NCI-H460 [1] [%] | Viability (%) SF295 [2] [%] | Viability (%) SK-MEL-28 [3] [%] | CC50 at 24 h [4] [µM] | CC50 [3] [µM] | SI (selectivity index) SK-MEL-28 [3] | Anti-inflammatory activity, NOx release (in words) ([5]; compound at CC10, LPS 10 μg/mL) | Reduction of NOx release vs control M1 cells (LPS+ group) [5, 8] [%] | Anti-inflammatory activity, IL-6 release (in words) ([6]; compound at CC10, LPS 10 μg/mL) | Reduction of IL-6 release vs control M1 cells (LPS+ group) [6, 8] [%] | Cytotoxicity against macrophages (in words) [7]
CC(=O)OCC1=C2C(OC(C)=O)CC(C)(OC(C)=O)C(=O)CCC3(C)OC3C2OC1=O (centres unmarked) [Compound 1, glaucolide B] | 85.1 ± 4.6 | 88.0 ± 4.8 | 82.6 ± 4.1 |  |  |  |  |  |  |  | 
COCC1=C2C(OC(C)=O)CC(C)(OC(C)=O)C3(O)CCC(C)(O)C(OC(C)=O)C23OC1=O (centres unmarked) [Compound 2, 13-O-methylvernojalcanolide-8-O-acetate] | 91.8 ± 3.6 | 86.8 ± 6.3 | 87.1 ± 2.6 |  |  |  |  |  |  |  | 
CC(=O)OCC1=C2C(OC(C)=O)CC(C)(OC(C)=O)C3(O)CCC(C)(O)C(OC(C)=O)C23OC1=O (centres unmarked) [Compound 3, 1,4-dihydroxy-5,8,10,13-tetraacetoxycadin-7(11)-en-6,12-olide] | 88.4 ± 3.4 | 86.1 ± 2.3 | 91.1 ± 1.7 |  |  |  |  |  |  |  | 
C=C1C(=O)OC2C(OC(C)=O)C3(C)CC4C12C(OC(C)=O)CC(C)(OC(C)=O)C4(O)O3 (stereo not drawn) [Compound 4, 5,8-diacetoxy-2-epi-vernomargolide-1,4-cyclosemiacetal] | 100.2 ± 2.7 | 94.7 ± 1.1 | 96.4 ± 6.9 |  |  |  |  |  |  |  | 
C=C1C(=O)OC2C(OC(C)=O)C3(C)CC4C12C(OC(C)=O)CC(C)(O)C4(O)O3 (stereo not drawn) [Compound 5, 5,8,10-triacetoxy-2-epi-vernomargolide-1,4-cyclosemiacetal] | 100.3 ± 5.5 | 95.6 ± 3.9 | 95.3 ± 4.1 |  |  |  |  |  |  |  | 
C=C1C(=O)OC2C(OC(C)=O)C3(C)CC4C12C(OC(C)=O)CC1(C)OC(C)(C)OC41O3 (stereo not drawn) [Compound 6, 5,8-diacetoxy-2-epi-vernomargolide-1,4-cycloacetal-1,10-acetonide] | 90.4 ± 1.5 | 90.4 ± 3.7 | 85.9 ± 4.0 |  |  |  |  |  |  |  | 
CC(=O)OCC1=C2C(OC(C)=O)CC(C)(OC(C)=O)C3(O)CCC(C)(O3)C(O)C2OC1=O (centres unmarked) [Compound 7, 5-hydroxy-hirsutinolide] | 89.1 ± 3.9 | 86.7 ± 3.8 | 76.2 ± 7.5 |  |  |  |  |  |  |  | 
CC(=O)OCC1=C2/C(=C\C3(C)CC=C(O3)C(C)(OC(C)=O)CC2OC(C)=O)OC1=O (centres unmarked) [Compound 7b, 8,10,13-triacetoxy-1(4)-epoxy-germacra-1(2),5(6),7(11)-trien-6(12)-olide] | 73.2 ± 1.0 | 83.3 ± 1.2 | 16.0 ± 2.6 | 27.8 | 11.2 | 2.5 |  |  |  |  | 
C=C1C(=O)OC2(O)C(=O)C3(C)CCC(=O)C(C)(OC(C)=O)CC(OC(C)=O)C12O3 (centres unmarked) [Compound 7c.1, 8,10-diacetoxy-4(7)-epoxy-6-hydroxy-1,5-oxo-germacr-11(13)-en-6(12)-olide] | 88.7 ± 6.7 | 87.0 ± 4.7 | 77.3 ± 0.3 |  |  |  | strongly reduced | ~77 | strongly reduced | ~77 | less cytotoxicity against macrophages
CC(=O)OCC1=C2C(OC(C)=O)CC(C)(OC(C)=O)C3(O)CCC(C)(O3)C(=O)C2(O)OC1=O (centres unmarked) [Compound 7c] | 85.7 ± 1.6 | 88.6 ± 4.8 | 79.2 ± 6.4 |  |  |  |  |  |  |  | 
C=C1C(=O)OC2C(O)C3(C)CCC(OC(C)=O)(O3)C3(C)CC(OC(C)=O)C12O3 (centres unmarked) [Compound 8, 1,8-diacetoxy-1(4),7(10)-diepoxy-5-hydroxygermacr-11(13)-en-6(12)-olide] | 87.3 ± 1.6 | 82.0 ± 4.7 | 66.9 ± 3.5 |  |  |  |  |  |  |  | 
C=C1C(=O)OC2C(OC(C)=O)C3(C)CCC(OC(C)=O)(O3)C3(C)CC(OC(C)=O)C12O3 (centres unmarked) [Compound 8a, 1,5,8-triacetoxy-1(4),7(10)-diepoxy-germacr-11(13)-en-6(12)-o1ide] | 53.1 ± 0.0 | 67.3 ± 4.0 | 5.3 ± 0.3 | 9 | 3.1 | 3.0 |  |  |  |  | 
C=C1C(=O)OC2C(O)C(C)(O)CC3C(=O)C(C)(O)CC(OC(C)=O)C132 (centres unmarked) [Compound 9, 8-acetoxy-vernomargolide] | 84.9 ± 0.4 | 85.2 ± 2.8 | 74.5 ± 4.9 |  |  |  |  |  |  |  | 
C=C1C(=O)OC2C(OC(C)=O)C(C)(O)CC3C(=O)C(C)(O)CC(OC(C)=O)C132 (centres unmarked) [Compound 9a, 5,8-diacetoxy-vernomargolide] | 84.8 ± 0.9 | 85.9 ± 5.0 | 73.8 ± 3.1 |  |  |  |  |  |  |  | 
C=C(C)C(=O)OC1CC(C)(O)C2(O)CCC(C)(/C=C3/OC(=O)C(COC(C)=O)=C31)O2 (centres unmarked) [Compound 10, piptocarphin A, reference compound] | 104.8 ± 1.6 | 93.2 ± 3.2 | 23.1 ± 4.2 | 12.5 | 6.7 | 1.9 |  |  |  |  | 
CC(=O)OCC1=C2/C(=C\C3(C)CCC(O)(O3)C(C)(O)CC2OC(C)=O)OC1=O (centres unmarked) [Compound 12, diacetylpiptocarphol, reference compound] | 63.8 ± 6.9 | 80.4 ± 3.3 | 9.0 ± 0.5 | 12.6 | 3.8 | 3.3 |  |  |  |  | 
